This note sets out measurements from US5608143A, “External regulation of gene expression” (E. I. Du Pont de Nemours and Company, priority 1994, dated 1997).

The test system of one assay is 2-2 gene (In 2-2 mRNA). The assay is described as follows: RNA slot blot / Northern analysis of 2-2 mRNA in roots of chemically treated corn. It counts as in vivo, corn (Missouri 17). Also noted: In2-2 induction level: key to the marks not given beside the values. As for the experimental part: Details of the techniques used to perform the procedures used in Example 2 are presented in Example 1. The cDNA library made using poly(A)^+ RNA from the roots of N-(aminocarbonyl)-2-chlorobenzenesulfonamide-treated Missouri 17 corn plants (described in Example 1) was analyzed for additional cDNA clones representing mRNAs induced by substituted benzenesulfonamides. […] This colony was designated In 2-2.
A small scale plasmid preparation was performed on the plasmid contained in colony In 2-2. This plasmid was designated pIn 2-2. An aliquot of pIn 2-2 was nick translated as described earlier. A slot blot containing total RNA from N-(aminocarbonyl)-2-chlorobenzenesulfonamide-treated and untreated roots was prepared and probed with nick-translated pIn 2-2 as described for pIn 2-1 in Example 1.
The pIn 2-2 small scale plasmid preparation was digested to completion with Pst I and analyzed by agarose gel electrophoresis. The cDNA insert of the plasmid was excised by Pst I as a single 1200 bp fragment. Nick-translatedpIn 2-2 was used to probe a Northern blot of RNA from both untreated and N-(aminocarbonyl)-2-chlorobenzenesulfonamide-treated roots.
The ability at various substituted benzenesulfonamides and related compound to induce the expression of the 2-1, 2-2, and 5-2 genes of Missouri 17 corn was evaluated. Corn seeds were germinated and grown hydroponically in 2 liter beakers as described in Example 1. On the tenth day, plants were transferred into fresh 0.5× Hoagland's solution containing the chemical to be tested. Root tissue was harvested from the plants after six hours of chemical treatment, quick-frozen by immersion in liquid N2, and stored at -80° C. until analyzed.
Details of the RNA isolation and slot blot analysis procedures are presented in Example 1. Total RNA was prepared from the root tissue of plants that had been treated with various chemicals using the previously described guanidine thiocyanate procedure. Replicate blots, each consisting of 2 μg of total RNA from tissues treated with each of the chemicals shown in tables 8 and 9, were prepared on nitrocellulose membranes using a Minifold II® Slot-blotter (Schleicher & Schuell) following the manufacturer's recommeneded procedure. Replicate blots were prehybridized and hybridized with cDNA probes made by nick translation of the purified cDNA inserts from plasmid pIn 2-1, pIn 2-2-3, and pIn 5-2. Slot blots were washed as described in Example 1 and exposed to Kodak X-OMAT XAR-5 film for 24 hours at -80° C. using a single Du Pont Lightning Plus intensifying screen. Film was developed using a Kodak X-OMAT film processor. The abililty of a chemical to induce the mRNA encoded by the three inducible genes was evaluated in one of two ways. Qualitative evaluation was performed by direct visual comparison of the autoradiographic signal intensities on the films for the hybridization of each probe to the different RNA samples. Quantitative evaluation was performed by cutting each slot containing hybridized RNA from the blot, immersing it in 2 ml of Du Pont ECONOFLUOR® scintillation cocktail and counting the radioactivity in each slot in a scintillation counter. The net amount of radioactivity hybridizing to N-(aminocarbonyl)-2-chlorobenzenesulfonamide-treated RNA after subtraction of radioactivity hybridizing to untreated RNA is presented in Table 15.

In assay [1] the test system is tobacco leaf pieces (callus formation). The assay is described as follows: Callus formation of leaf pieces from kanamycin-resistant tobacco shoots on selective medium. The class given is cell-based. The conditions noted are these: sixteen kanamycin-resistant shoots, three weeks; 10 ppb chlorsulfuron and/or 100 ppm D5293. From the text:
Callus formation was scored as plus or minus after three weeks of growth.

In assay [2] the test system is tobacco T2 gene (T2 mRNA). The experiment in a line: Northern analysis of T2 mRNA in roots of chemically treated tobacco. It counts as in vivo, N. tabacum (Petite Havana SRI). The settings on record: treated vs control plants. The source says: The procedures described for the isolation of the petunia cDNA clone P6.1 in Example 4 were repeated using N. tabacum (Petite Havana SRI) as the starting plant material. Differential screening of the resulting tobacco cDNA library prepared using poly(A)^+ RNA from the roots of N-(aminocarbonyl)-2-chlorobenzenesulfonamide-treated tobacco plants identified a cDNA clone representing an N-(aminocarbonyl)-2-chlorobenzenesulfonamide-inducible mRNA species. This clone was designated T2.
A Northern blot of total RNA from the roots of untreated and N-(aminocarbonyl)-2-chlorobenzenesulfonamide-treated tobacco plants was probed with nick-translated T2.1 to determine the size of the corresponding T2 mRNA. The methods used for these procedures were described in Example 4.

Where [3] appears, read: hydroponic treatment, corn roots.

For `NC(=O)NS(=O)(=O)c1ccccc1Cl`, the In2-2 induction level entry in the assay on 2-2 gene (In 2-2 mRNA) (hydroponic application, 100 ppm) was “+++++”. Also, in the assay with 2-2 gene (In 2-2 mRNA) (setting [3]), the “hybridization of pIn 2-2 to root RNA (Northern blot)” value is on record as “present only in RNA from the roots” and the “hybridization of pIn 2-2 to root RNA (slot blot)” value is “hybridizes strongly”. Moreover, the “Callus formation (shoots whose leaf pieces formed callus / shoots tested)” value in assay [1] is on record as 0/16. In addition, in assay [2], the “hybridization of T2.1 to root RNA (Northern blot)” value is “hybridized to an mRNA of 800 nt”.
